Measured values taken from patent US5786348A, “Methods for preparation and use of 1α,24(S)-dihydroxy vitamin D2” (priority 1995, dated 1998).

What was measured:
[1] = target: T1, vitamin D serum binding protein (DBP) (Rattus norvegicus, UniProt P04276); experiment: Binding to vitamin D serum binding protein in vitamin D deficient rat serum
T1 sequence (P04276 17-476): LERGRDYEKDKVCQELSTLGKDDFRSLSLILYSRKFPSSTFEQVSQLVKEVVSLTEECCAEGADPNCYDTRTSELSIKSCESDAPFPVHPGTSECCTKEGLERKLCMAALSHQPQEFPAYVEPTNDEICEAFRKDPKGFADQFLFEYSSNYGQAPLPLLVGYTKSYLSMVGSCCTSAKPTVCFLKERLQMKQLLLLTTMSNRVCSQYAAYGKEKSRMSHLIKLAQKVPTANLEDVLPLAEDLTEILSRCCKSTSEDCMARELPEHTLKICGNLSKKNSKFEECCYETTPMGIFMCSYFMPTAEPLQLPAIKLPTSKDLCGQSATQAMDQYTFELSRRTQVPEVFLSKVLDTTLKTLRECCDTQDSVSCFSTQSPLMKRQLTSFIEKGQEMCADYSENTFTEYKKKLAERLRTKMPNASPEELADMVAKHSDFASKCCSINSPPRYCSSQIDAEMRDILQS
Source text: In addition, the weak binding by the DBP was indicative of more rapid clearance, allowing for low toxicity.

[2] = Dose ranging study in postmenopausal osteoporotic women; format: in vivo, human; conditions: oral 0.5 to 8.0 μg/day, rising weekly over five weeks
Experimental: Twenty postmenopausal osteoporotic women are enrolled in an open label study.
On admission to the study, all patients receive instruction on selecting a daily diet containing 400 to 600 mg of calcium. Compliance to this diet is verified at weekly intervals by 24-hour food records and by interviews with each patient.
All patients complete a one-week baseline period, a five-week treatment period, and a one-week post-treatment observation period. During the treatment period, patients orally self-administer 1α,24(S)-dihydroxyvitamin D2 at an initial dose of 0.5 μg/day for the first week, and at successively higher doses of 1.0, 2.0, 4.0, and 8.0 μg/day in each of the following four weeks. All doses are administered before breakfast.
Blood and urine chemistries are monitored on a weekly basis throughout the study. Key blood chemistries include fasting serum levels of calcium, phosphorus, osteocalcin, creatinine, and blood urea nitrogen. Key urine chemistries include 24-hour excretion of calcium, phosphorus, and creatinine.

[3] = Preventive treatment of bone mass loss in postmenopausal osteoporotic women; format: in vivo, human; conditions: at or above 1.0 μg/day, 24 to 36 months
Experimental: A clinical study is conducted with postmenopausal osteoporotic out-patientshaving ages between 55 and 75 years. The study involves up to 120 patients randomly divided into three treatment groups and continues for 24 to 36 months. Two of the treatment groups receive constant dosages of 1α,24(S)-dihydroxy vitamin D2 (u.i.d.; two different dose levels at or above 1.0 μg/day) and the other group receives a matching placebo. All patients maintain a normal intake of dietary calcium (500 to 800 mg/day) and refrain from using calcium supplements. Efficacy is evaluated by pre-and post-treatment comparisons of the patient groups with regard to (a) total body calcium retention, and (b) radial and spinal bone mineral density as determined by dual-photon absorptiometry (DPA) or dual-energy x-ray absorptiometry (DEXA). Safety is evaluated by comparisons of urinary hydroxyproline excretion, serum and urine calcium levels, creatinine clearance, blood urea nitrogen, and other routine determinations.

[4] = Dermatological testing: topical ointment in dermatitis patients; format: in vivo, human; conditions: ointment 10 μg per gram, twice daily, four to six weeks
Experimental: Compositions containing 1α,24(S)-dihydroxy vitamin D2 are evaluated for therapeutic efficacy of the composition in the topical treatment of dermatitis (contact and ectopic). The composition evaluated is an ointment containing 10 μg of 1α,24-dihydroxy vitamin D2 per gram of ointment in a petrolatum-almond oil base. […] The patients are treated in an out-patient clinic. They are instructed to use the preparation two times a day.
The ointment is as far as possible applied to a single lesion, or to an area of the disease. The ointment and its container are weighed before the treatment starts and returned with any unused contents for reweighing at the end of the treatment.
The area of the lesion treated is estimated and recorded, and the lesion is photographed as required, together with suitable "control" lesions. The latter are preferably lesions of similar size and stage of development, either in the vicinity of the treated lesion or symmetrically contralateral. Relevant details of the photographic procedure are recorded so as to be reproduced when the lesions are next photographed (distance, aperture, angle, background, etc.). The ointment is applied twice daily and preferably left uncovered. The "control" lesions are left untreated, but if this is not possible, the treatment used on them is noted. […]

HL-60 promyelocytes = experiment: HL-60 cell differentiation assay; format: cell-based; conditions: dose-response; acid esterase, NBT reduction, thymidine incorporation
Experimental: A dose-response study is conducted with 1α,24(S)-(OH)2 D2 in the HL-60 cell differentiation assay as described by DeLuca and Ostrom (DeLuca, H. F. and ostrem, V. K., Prog. Clin. Biol. Res., vol. 259, pp. 41-55 (1988)). In this study, 1α,25-(OH)2 D3 is used as a positive control and appropriate solvents are used as negative controls. The following variables are evaluated: nonspecific acid esterase activity, nitroblue tetrazolium (NBT) reduction, and thymidine incorporation.

With C=C1/C(=C\C=C2/CCC[C@]3(C)[C@@H]([C@H](C)/C=C/[C@@](C)(O)C(C)C)CC[C@@H]23)C[C@@H](O)C[C@@H]1O [1α,24(S)-(OH)2 D2, 1α,24(S)-dihydroxy vitamin D2] the “Binding to the vitamin D serum binding protein relative to 1,25-(OH)2 D3” value ([1]; compared with 1,25-(OH)2 D3) was “more weakly”, the “Binding affinity for the vitamin D serum binding protein” value ([1]; in words) was “relatively poor binding affinity” and the “24-hour urinary calcium levels” value [2] was “modest increases”. The “Routinely monitored serum parameters” value [2] was “no effect”, the Serum osteocalcin levels [2] was “increases” and the “Incidence of hypercalcemia or hypercalciuria or other metabolic disturbance” value [3] was “insignificant incidence”. The “Total body calcium, radial and spinal bone densities relative to placebo” value [3] was “significantly higher”, the Incidence of hypercalcemia [4] was “insignificant incidence” and the “Lesion severity scores (erythema, scaling, thickness; 0 to 3)” value ([4]; against control lesions) was “lower scores than the control lesions”. For the same molecule, the “Promotion of differentiation of HL-60 promyelocytes to monocytes” value (HL-60 promyelocytes) was “potent activity”.
